Data taken from patent US10202361B2, “Pyridazinones as herbicides” (E I DU PONT DE NEMOURS AND COMPANY, priority 2014, dated 2019).

Key:
Assay type in all cases: in vivo
[1] = system: pigweed (Amaranthus retroflexus); test: Test A pre-/postemergence greenhouse herbicide test; details: 0 to 100 scale (0 no effect, 100 complete control), approx. 10 d
From the text: (§1) Seeds of plant species selected from barnyardgrass (Echinochloa crus-galli), crabgrass, Large (large crabgrass, Digitaria sanguinalis), foxtail, giant (giant foxtail, Setaria faberii), morningglory (Ipomoea spp.), pigweed (Amaranthus retroflexus), velvetleaf (Abutilon theophrasti), wheat (Triticum aestivum), and corn (Zea mays) were planted into a blend of loam soil and sand and treated preemergence with a directed soil spray using test chemicals formulated in a non-phytotoxic solvent mixture which included a surfactant. At the same time these species were also treated with postemergence applications of test chemicals formulated in the same manner.
(§2) Plants ranged in height from 2 to 10 cm and were in the one- to two-leaf stage for the postemergence treatment. Treated plants and untreated controls were maintained in a greenhouse for approximately 10 d, after which time all treated plants were compared to untreated controls and visually evaluated for injury. Plant response ratings, summarized in Table A, are based on a 0 to 100 scale where 0 is no effect and 100 is complete control. A dash (-) response means no test result.

corn (Zea mays) = test: as above; details: 0 to 100 scale (0 no effect, 100 complete control), approx. 10 d
From the text: as §1, §2

[2] = system: foxtail, giant (giant foxtail, Setaria faberii); test: as above; details: 0 to 100 scale (0 no effect, 100 complete control), approx. 10 d
From the text: as §1, §2

[3] = system: morningglory (Ipomoea spp.); test: as above; details: 0 to 100 scale (0 no effect, 100 complete control), approx. 10 d
From the text: as §1, §2

[4] = system: wheat (Triticum aestivum); test: as above; details: 0 to 100 scale (0 no effect, 100 complete control), approx. 10 d
From the text: as §1, §2

[5] = system: crabgrass, Large (large crabgrass, Digitaria sanguinalis); test: as above; details: 0 to 100 scale (0 no effect, 100 complete control), approx. 10 d
From the text: as §1, §2

[6] = system: barnyardgrass (Echinochloa crus-galli); test: as above; details: 0 to 100 scale (0 no effect, 100 complete control), approx. 10 d
From the text: as §1, §2

[7] = system: velvetleaf (Abutilon theophrasti); test: as above; details: 0 to 100 scale (0 no effect, 100 complete control), approx. 10 d
From the text: as §1, §2

rice (Oryza sativa) = test: Test B flooded paddy test; details: Flood, 250 g ai/ha; scale of 0 to 100, 0 is no effect, 100 is complete control; 13 to 15 d
Procedure: (§3) Plant species in the flooded paddy test selected from rice (Oryza sativa), small-flower sedge, umbrella (small-flower umbrella sedge, Cyperus difformis), ducksalad (Heteranthera limosa), and barnyardgrass (Echinochloa crus-galli) were grown to the 2-leaf stage for testing. At time of treatment, test pots were flooded to 3 cm above the soil surface, treated by application of test compounds directly to the paddy water, and then maintained at that water depth for the duration of the test. Treated plants and controls were maintained in a greenhouse for 13 to 15 d, after which time all species were compared to controls and visually evaluated. Plant response ratings, summarized in Table B, are based on a scale of 0 to 100 where 0 is no effect and 100 is complete control. A dash (-) response means no test result.

[8] = system: sedge, umbrella (small-flower umbrella sedge, Cyperus difformis); test: Test B flooded paddy test; details: Flood, 250 g ai/ha; scale of 0 to 100, 0 is no effect, 100 is complete control; 13 to 15 d
Procedure: as §3

[9] = system: ducksalad (Heteranthera limosa); test: Test B flooded paddy test; details: Flood, 250 g ai/ha; scale of 0 to 100, 0 is no effect, 100 is complete control; 13 to 15 d
Procedure: as §3

[10] = system: barnyardgrass (Echinochloa crus-galli); test: Test B flooded paddy test; details: Flood, 250 g ai/ha; scale of 0 to 100, 0 is no effect, 100 is complete control; 13 to 15 d
Procedure: as §3

Compound | Plant response rating, Pigweed ([1]; Postemergence, 125 g ai/ha) | Plant response rating, Pigweed ([1]; Postemergence, 500 g ai/ha) | Plant response rating, Pigweed ([1]; Preemergence, 125 g ai/ha) | Plant response rating, Pigweed ([1]; Preemergence, 500 g ai/ha) | Plant response rating, Corn (corn (Zea mays); Postemergence, 125 g ai/ha) | Plant response rating, Corn (corn (Zea mays); Postemergence, 500 g ai/ha) | Plant response rating, Corn (corn (Zea mays); Preemergence, 125 g ai/ha) | Plant response rating, Corn (corn (Zea mays); Preemergence, 500 g ai/ha) | Plant response rating, Foxtail, Giant ([2]; Postemergence, 125 g ai/ha) | Plant response rating, Foxtail, Giant ([2]; Postemergence, 500 g ai/ha) | Plant response rating, Foxtail, Giant ([2]; Preemergence, 125 g ai/ha) | Plant response rating, Foxtail, Giant ([2]; Preemergence, 500 g ai/ha) | Plant response rating, Morningglory ([3]; Postemergence, 125 g ai/ha) | Plant response rating, Morningglory ([3]; Postemergence, 500 g ai/ha) | Plant response rating, Morningglory ([3]; Preemergence, 125 g ai/ha) | Plant response rating, Morningglory ([3]; Preemergence, 500 g ai/ha) | Plant response rating, Wheat ([4]; Postemergence, 125 g ai/ha) | Plant response rating, Wheat ([4]; Postemergence, 500 g ai/ha) | Plant response rating, Wheat ([4]; Preemergence, 125 g ai/ha) | Plant response rating, Wheat ([4]; Preemergence, 500 g ai/ha) | other results
Cc1cc(=O)n(-c2ccc(F)cc2)nc1Cc1cccc(C(F)(F)F)c1 [Compound 8] | 90 | 100 | 90 | 100 | 20 | 40 | 0 | 0 | 50 | 90 | 80 | 90 | 80 | 80 | 0 | 0 | 10 | 20 | 0 | 0 | Plant response rating, Crabgrass, Large ([5]; Postemergence, 125 g ai/ha): 40; Plant response rating, Crabgrass, Large ([5]; Postemergence, 500 g ai/ha): 90; Plant response rating, Crabgrass, Large ([5]; Preemergence, 125 g ai/ha): 90; Plant response rating, Crabgrass, Large ([5]; Preemergence, 500 g ai/ha): 100; Plant response rating, Barnyardgrass ([6]; Postemergence, 125 g ai/ha): 20; Plant response rating, Barnyardgrass ([6]; Postemergence, 500 g ai/ha): 50; Plant response rating, Barnyardgrass ([6]; Preemergence, 125 g ai/ha): 20; Plant response rating, Barnyardgrass ([6]; Preemergence, 500 g ai/ha): 80; Plant response rating, Velvetleaf ([7]; Postemergence, 125 g ai/ha): 20; Plant response rating, Velvetleaf ([7]; Postemergence, 500 g ai/ha): 80; Plant response rating, Velvetleaf ([7]; Preemergence, 125 g ai/ha): 0; Plant response rating, Velvetleaf ([7]; Preemergence, 500 g ai/ha): 0; Plant response rating, Rice (rice (Oryza sativa)): 25; Plant response rating, Sedge, Umbrella [8]: 75; Plant response rating, Ducksalad [9]: 0; Plant response rating, Barnyardgrass [10]: 20
Cc1cc(Oc2cc(C(F)(F)F)ccn2)nn(-c2ccc(F)cc2)c1=O [Compound 9] | 0 | 0 | 0 | 0 | 0 | 0 | 0 | 0 | 0 | 0 | 0 | 0 | 0 | 0 | 0 | 0 | 0 | 0 | 0 | 0 | Plant response rating, Crabgrass, Large ([5]; Postemergence, 125 g ai/ha): 0; Plant response rating, Crabgrass, Large ([5]; Postemergence, 500 g ai/ha): 0; Plant response rating, Crabgrass, Large ([5]; Preemergence, 125 g ai/ha): 0; Plant response rating, Crabgrass, Large ([5]; Preemergence, 500 g ai/ha): 0; Plant response rating, Barnyardgrass ([6]; Postemergence, 125 g ai/ha): 0; Plant response rating, Barnyardgrass ([6]; Postemergence, 500 g ai/ha): 0; Plant response rating, Velvetleaf ([7]; Postemergence, 125 g ai/ha): 0; Plant response rating, Velvetleaf ([7]; Postemergence, 500 g ai/ha): 0; Plant response rating, Velvetleaf ([7]; Preemergence, 125 g ai/ha): 0; Plant response rating, Velvetleaf ([7]; Preemergence, 500 g ai/ha): 0; Plant response rating, Rice (rice (Oryza sativa)): 0; Plant response rating, Sedge, Umbrella [8]: 0; Plant response rating, Ducksalad [9]: 0; Plant response rating, Barnyardgrass [10]: 0
